This assay concerns the target Arachidonate 5-lipoxygenase (Rattus norvegicus). Briefly: Evaluated for inhibitory activity against RBL-1 cell 5-lipoxygenase in rat.

Structures can show the parent of a compound that is named as a salt.

`Cc1cc(OCCN2CCN(C(c3ccccc3)c3ccccc3)CC2)c(C)c(C)c1O` [4-[2-(4-Benzhydryl-piperazin-1-yl)-ethoxy]-2,3,6-trimethyl-phenol; hydrochloride] returned an IC50 of 0.82 µM.

`Cc1cc(OCCCCCCCCN2CCN(C(c3ccccc3)c3ccccc3)CC2)c(C)c(C)c1O` [4-[8-(4-Benzhydryl-piperazin-1-yl)-octyloxy]-2,3,6-trimethyl-phenol; hydrochloride] came in with an IC50 of 1.06 µM.

`Cc1cc(OCCCN2CCN(C(c3ccccc3)c3ccccc3)CC2)c(C)c(C)c1O` [4-[3-(4-Benzhydryl-piperazin-1-yl)-propoxy]-2,3,6-trimethyl-phenol; hydrochloride] returned a half-maximal inhibitory concentration (IC50) of 0.426 µM.

As to `Cc1cc(OCCCCN2CCN(C(c3ccccc3)c3ccccc3)CC2)c(C)c(C)c1O` [4-[4-(4-Benzhydryl-piperazin-1-yl)-butoxy]-2,3,6-trimethyl-phenol; hydrochloride], inhibition was half-maximal at 0.358 µM (IC50). This IC50 and that of the compound before are within 1.5-fold of each other.
